Test results published in patent US20150079174A1, “ANTIMICROBIAL COMPLEXES” (Matera, LDA, priority 2012, published 2015).
Where two headings read alike, the source gives them in different places.

Legend:
[1] = system: Candida albicans ATCC 10231; experiment: Minimal inhibitory concentration (growth kinetics at 600 nm / broth microdilution); settings: for MIC: Candida albicans, ATCC10231, 18 h
Experimental: (§1) Growth kinetics of Candida albicans ATCC 10231 (C. albicans, fungi), Staphylococcus aureus ATCC 6538 (S. aureus, gram-positive bacteria) and Escherichia coli ATCC 25922 (E. coli, gram-negative bacteria) (1×10^5 cells/ml) exposed to variable concentrations (from 62.5 to 500 μg/ml for fungi and from 15.6 to 500 μg/ml for S. aureus and E. coli) of the surfactants was evaluated by absorbance at 600 nm. Inoculum corresponds to prokaryotic cells incubated without surfactants. The samples were prepared in a 96-well plate and incubated for 18 h at 30° C. (fungi) or 37° C. (bacteria) with constant shaking in a Biotek Synergy Mx spectrophotometer.
(§2) Minimum inhibitory concentrations (MICs) were determined by the broth microdilution method according to the National Committee for Clinical Laboratory Standard (for yeasts; NCCLS; M27A2E) and the Clinical and Laboratory Standards Institute (for bacteria; CLSI; M07-A8) guidelines.
(§3) Inoculum corresponds to prokaryotic cells incubated without SNPs. The samples were prepared as described above.
(§4) Typically, SWCNTs coated with DDAB or other surfactants were diluted taking in account the initial surfactant concentration being the SWCNT concentration estimated by the corresponding mass ratio used. The antimicrobial activity of the coated SWCNTs was tested in suspension against Candida albicans ATCC 10231 (C. albicans, fungi), Staphylococcus aureus ATCC 6538 (S. aureus, bacteria gram-positive) and Escherichia coli ATCC 25922 (E. coli, bacteria gram-negative). Yeast Peptone Dextrose (YPD) and Tryptone Soy Yeast (TSY) media were used to culture yeast and bacteria, respectively. […] Inoculum corresponds to cells incubated without CNTs. The samples were prepared in a 96-well plate and incubated for 18 h at 30° C. (fungi) or 37° C. (bacteria) with constant shaking in a Biotek Synergy Mx spectrophotometer.

[2] = system: Escherichia coli ATCC 25922; experiment: as above; settings: for MIC: Escherichia coli, ATCC25922, 18 h
Experimental: as §1, §2, §3, §4

[3] = system: Staphylococcus aureus ATCC 6538; experiment: as above; settings: for MIC: Staphylococcus aureus, ATCC6538, 18 h
Experimental: as §1, §2, §3, §4

[4] = Critical micelle concentration (CMC) with fluorescent probe N-phenyl-1-naphthylamine; format: physicochemical; settings: surfactant in PBS pH 7.4
Experimental: Critical Micelle Concentration (CMC) was determined for a range of surfactants, following the method described by Brito et al. ‘Determination of the critical micelle concentration of surfactants using the fluorescent probe N-phenyl-1-naphthylamine.’ Anal. Biochem 1986 (152) 250-255.
Briefly, the surfactants were dissolved in PBS (pH 7.4), serially diluted and mixed with N-phenyl-1-naphthylamine (NPN; TCI). The fluorescence of each sample was quantified (excitation at 350 nm; emission at 420 nm) and plotted against the concentration of each surfactant. The CMC was found at the intersection of two straight lines traced on the emission intensity plot, defining the aqueous and micellar environments.
The evolution of SWCNTs resuspension was performed by optical density measurement (at 600 nm) on a microplate reader. N-phenyl-1-naphthylamine (NPN) (Sigma-Aldrich) was used to determine the DDAB critical micelle concentration (CMC) and the presence of micelles on the SWCNT suspension. A solution of NPN of 2×10^−1 M in ethanol was prepared and further diluted in PBS to the working concentration of 2×10^−4 M. DDAB or SWCNT-DDAB suspensions were mixed in equal volumes on a opaque 96-well plate and the fluorescence measured with the assistance of a SpectraMax Fluoremeter using an excitation and emission wavelength of 320 and 450 nm, respectively.

[5] = read-out: MIC S. aureus, soluble surfactant, 15.6 to 500 μg/ml, 18 h at 37° C.
[6] = soluble surfactant, 15.6 to 500 μg/ml, 18 h at 37° C.

CCCCCCCCCCCC[N+](C)(C)CCCCCCCCCCCC.[Br-] [DDAB, didodecyldimethylammonium bromide]
MIC ([1]; read-out: MIC C. albicans, soluble surfactant, 62.5 to 500 μg/ml, 18 h at 30° C.): 125 µg/mL | MIC C. albicans ([1]; soluble surfactant, 62.5 to 500 μg/ml, 18 h at 30° C.): 250 µg/mL | MIC ([2]; read-out: MIC E. coli): 125 µg/mL | MIC [3, 5]: 31.2 µg/mL | MIC S. aureus [3, 6]: 31.3 µg/mL | CMC [4]: 32.4 µg/mL

CCCCCCCCCCCCCCCC[N+](C)(C)CCCCCCCCCCCCCCCC.[Br-] [DHDAB, dihexadecyldimethylammonium bromide]
CMC [4]: 5.2 µg/mL

CCCCCCCCCCCC[N+](C)(C)C.[Br-] [DTAB, dodecyltrimethylammonium bromide]
MIC ([1]; read-out: MIC C. albicans): 250 µg/mL | MIC ([2]; read-out: MIC E. coli, soluble surfactant, 15.6 to 500 μg/ml, 18 h at 37° C.): 125 µg/mL | MIC E. coli [2, 6]: 62.5 µg/mL | MIC ([3]; read-out: MIC S. aureus): 31.2 µg/mL | CMC [4]: 3515.1 µg/mL

CCCCCCCCCCCCCC[N+](C)(C)CCCCCCCCCCCCCC.[Br-] [DTDAB, ditetradecyldimethylammonium bromide]
CMC [4]: 7.8 µg/mL

CCCCCCCCCCCC[N+](C)(CCCCCCCCCCCC)CCCCCCCCCCCC.[Cl-] [TMAC, tridodecylmethylammonium chloride]
MIC [3, 5]: 125 µg/mL | CMC [4]: 246.2 µg/mL
